Measured values from the SangsterLogP compilation.

SMILES | logP
N#Cc1ccnc2ccccc12 | 1.98
N#Cc1ccncc1 | 0.46
Cc1cc2nccnc2cc1C | 2.29
Nc1cnc2ccccc2c1 | 1.63
CSc1cnc2ccccc2n1 | 2.79
N#Cc1ccc2nccnc2c1 | 1.01
O=S(=O)(c1ccccc1)c1ccc2ncccc2c1 | 2.57
Cc1ccc([N+](=O)[O-])cn1 | 0.99
Cc1cnc(C)cn1 | 0.63
Clc1ccc2nccnc2c1 | 2.1
Clc1cnc2ccccc2n1 | 2.23
Nc1ccc2nccnc2c1 | 0.9
Cc1cccc2c1ncc[n+]2[O-] | 1.2
Cc1cnc2ccccc2n1 | 1.61
CS(=O)(=O)c1cnc2ccccc2n1 | 0.79
Cc1cccc(C#N)n1 | 0.84
N#Cc1cccnc1 | 0.36
Nc1ccnc2ccccc12 | 1.63
Cc1cc(C#N)ccn1 | 0.81
Cc1cccc2nccnc12 | 2.04
N#Cc1ccccn1 | 0.5
Clc1cccc2nccnc12 | 1.75
Nc1cccc2nccnc12 | 1.29
Clc1ccc2ccccc2n1 | 2.71
Nc1cnc2ccccc2n1 | 1.5
Cc1ccc2c(c1)N(O)C=CN2O | -0.35
COc1cnc2ccccc2n1 | 2.31
CCOc1ccc2nccnc2c1 | 2.22

Other lines, results leading:

logP | SMILES
1.26 | O=COc1ccccc1
1.33 | Clc1cccnc1
2.71 | CN(C)c1ccc2cccnc2c1
1.34 | CN(C)c1ccncc1
2.62 | CC(=O)c1ccnc2cc(Cl)ccc12
2.54 | CC(=O)c1ccc2ccccc2n1
0.87 | COC(=O)c1ccncc1
-0.07 | Nc1cnccn1
2.37 | COc1ccc2cccnc2c1
1.92 | CC(=O)Nc1cnc2ccccc2c1
0.71 | CC(=O)Nc1cccc2ncccc12
0.83 | CC(=O)c1ccccn1
0.43 | CC(=O)c1cccnc1
0.6 | O=[N+]([O-])c1cccnc1
0.41 | CC(=O)Nc1cccnc1
2.06 | O=[N+]([O-])c1ccnc2ccccc12
2.92 | Brc1ccc2cccnc2c1
1 | COc1ccncc1
0.23 | Cc1cnccn1
0.48 | O=[N+]([O-])c1ccccn1
2.73 | CCC(=O)Nc1ccnc2cc(Cl)ccc12
1.83 | CCOC(=O)c1cccc2cccnc12
1.73 | CCOC(=O)Oc1cccc2cccnc12
1.97 | O=[N+]([O-])c1cnc2ccccc2c1
1.55 | CC(=O)Nc1ccc2ncccc2c1
2.73 | CN(C)c1cccc2cccnc12
